Test results published in patent US8796302B2 (priority 2004, dated 2014).

Columns and labels:
[1] = test system: dopaminergic neurons in rat primary mesencephalic neuron-glia cultures; assay: [3H]DA uptake in LPS-treated mesencephalic neuron-glia cultures; format: cell-based; conditions: for DA uptake, post-treatment with DM: LPS 20 ng/ml 12 h then removed
[2] = test system: dopaminergic neurons in rat primary mesencephalic neuron-glia cultures; assay: DA uptake / TH-IR count in neuron-glia cultures without toxin (spontaneous DA neuronal death, neurotrophic effect); format: cell-based
Method: In Example 23, [^3H]DA uptake assay and immunohistochemical analysis for TH-IR neurons were used to assess the viability of DA neurons in rat primary mesencephalic neuron-glia cultures in which approximately 1% of the neurons are dopaminergic. [^3H]DA uptake assays were performed as described in Example 1.
Rat primary mesencephalic neuron-glia cultures were prepared from the ventral mesencephalic tissues of embryonic day 13-14 Fisher 344 rats. Dissociated cells were seeded at a density of 5×10^5/well to poly-D-lysine-precoated 24-well plates. Cells were maintained at 37° C. in a humidified atmosphere of 5% CO2 and 95% air, in minimal essential medium containing 10% fetal bovine serum (FBS), 10% horse serum, 1 gm/l glucose, 2 mM L-glutamine, 1 mM sodium pyruvate, 100 μM non-essential amino acids, 50 U/ml penicillin, and 50 μg/ml streptomycin. Unless otherwise indicated, seven-day-old cultures were used for treatment.
Seven days after seeding, each well was treated with indicated concentration of VPA or its vehicle. Seven days after treatment, the viability of dopaminergic neurons was assessed by [^3H]DA uptake assays. Quantified results are expressed as mean±SEM of percentage of vehicle-treated cultures from three experiments performed in duplicate. *, p<0.05 compared with the corresponding vehicle-treated control cultures.
Next, the rat primary mesencephalic neuron-glia cultures were treated with 0.6 mM VPA for various times to determine the treatment time-dependency. Rat primary mesencephalic neuron-glia cultures in a 24-well plate were treated with 0.6 mM VPA or its vehicle for indicated time 7 days after seeding. The viability of dopaminergic neurons was assessed by [^3H]DA uptake assays, shown in FIG. 37 or counting of TH-IR neurons, shown in FIG. 38. Quantified results are expressed as mean±SEM of percentage of vehicle-treated control cultures from three experiments performed in duplicate. *, p<0.05 compared with the corresponding vehicle-treated control cultures. […] VPA time-dependently induces survival-promoting effects against spontaneous DA neuronal death in rat primary mesencephalic neuron-glia cultures.
Rat primary mesencephalic neuron-glia cultures seeded in a 24-well culture plate at density of 5×10^5 per well were treated with indicated concentrations of sodium butyrate or its vehicle 7 days after seeding. The viability of dopaminergic neurons was assessed by DA uptake assays 7 days after sodium butyrate addition.
Mesencephalic neuron-glia cultures, prepared as described above, were pretreated with vehicle or 3-HM (1-5 μM) before the treatment of LPS (10 ng/ml). Seven days later, the degeneration of dopaminergic neurons was determined by the functional assay of [^3H]DA uptake and by the morphometric measurement of dopaminergic neurons following immunostaining with an anti-TH antibody. [^3H]DA and immunostaining are performed as described above.

[3] = test system: dopaminergic neurons in mesencephalic neuron-enriched cultures; assay: [3H]DA uptake in neuron-enriched cultures (direct, conditioned media, reconstituted); format: cell-based, rat; conditions: for DA uptake with 3-HM-treated astroglia conditioned media: 24 h conditioning, % of non-conditioned control, vehicle conditioned 122%
Method: Mixed-glia cultures were first prepared from brains of 1-day-old Fisher 344 rat pups, as described previously (Liu, et al. 2001). Mechanically dissociated brain cells (5×10^7) were seeded onto 150 cm^2 culture flasks in Dulbecco's modified Eagle's medium containing 10% heat-inactivated FBS, 2 mM L-glutamine, 1 mM sodium pyruvate, 100 μM non-essential amino acids, 50 U/ml penicillin, and 50 μg/ml streptomycin. The cultures were maintained at 37° C. in a humidified atmosphere of 5% CO2 and 95% air, and medium was replenished 4 days after the initial seeding. Upon reaching confluence (usually 12-14 days later), microglia were detached from astroglia by shaking the flasks for 5 hours at 180 rpm. Astroglia were then detached with trypsin-EDTA and seeded in the same culture medium. After five or more consecutive passages, cells were seeded onto 24-well plates (10^5/well) for experiments. Immunocytochemical staining of the astroglia enriched cultures with either anti-GFAP or anti-OX-42 antibody indicated astroglial purity of greater than 98% and less than 2% of microglia contamination.
Conditioned medium derived from rat primary astroglial cultures treated with vehicle (ACM) or 0.6 mM VPA (ACM-VPA) were harvested after 12, 24 and 48 hours of incubation. Midbrain neuron-enriched cultures seeded in 24-well plates at a density of 5×10^5 cells/well were treated with vehicle, VPA, ACM or ACM-VPA for 7 days. Neurotrophic effect was quantified by [^3H]DA uptake assay.
Rat mesencephalic neuron-enriched cultures are prepared from dissociated ventral mesencephalic cells from embryonic day 13-14 Fisher 344 rats were seeded first at a density of 5×10^5/well to poly-D-lysine-precoated 24-well culture plates. […] Three days later, the culture medium was replaced with the maintenance medium. Routinely, the seven-day-old neuron-enriched cultures were used for treatment. […] Of the Neu-N immunoractive neurons, 2.7-3.9% was TH-IR neurons.
To explore whether astroglial cells are also the main target of sodium butyrate-induced neurotrophic effect, we prepared media conditioned by incubation of astroglial cultures in the absence or presence 0.6 mM sodium butyrate. Conditioned medium derived from rat primary astroglial cultures treated with vehicle (ACM) or 0.6 mM sodium butyrate (ACM-Sodium butyrate) were harvested after 48 hours of incubation. Midbrain neuron-enriched cultures seeded in 24-well plates at a density of 5×10^5 cells/well were treated with vehicle, sodium butyrate, ACM or ACM-Sodium butyrate for 7 days. Seven days after treatment, neurotrophic effect for dopaminergic neurons was assessed by [^3H]DA uptake assays.
Various concentrations of 3-HM (0.1-5 μM) or vehicle were added to the following different cell cultures: neuron-enriched cultures (A); reconstituted cultures by adding 10% and 20% (5×10^4/well and 1×10^5/well) of microglia to the neuron-enriched cultures (B); reconstituted cultures by adding 40% and 50% (2×10^5/well and 2.5×10^5/well) of astroglia to the neuron-enriched cultures (C). Cultures are prepared as described in Example 25. The [^3H]DA uptake measurements were performed […] after treatment. Results were expressed as a percentage of the vehicle-treated control cultures and were the mean±SE from five (A) and four (B,C) independent experiments in triplicate. *P<0.05 and **P, 0.001 compared with the vehicle-treated control cultures. #P<0.05 compared with the augmented cultures with 40% astroglia. N, neuron-enriched cultures; N+10% (20%) MG: 10% (20%) of microglia were added back to the neuron-enriched cultures; N+40% (50%) AS: 40% (50%) of astroglia were added back to the neuron-enriched cultures.
To confirm the possible role of astroglia in the neurotrophic effect of 3-HM, conditioned media from astroglia-enriched cultures (prepared as described above) treated with either 3-HM (1-5 μM) or vehicle for 24 hours were prepared. […]

[4] = test system: TH-IR (dopaminergic) neurons in mesencephalic neuron-glia cultures; assay: TH-IR neuron count and morphology in LPS-treated neuron-glia cultures; format: cell-based, rat; conditions: for dendrite network (immunocytochemical analysis): LPS; for attenuation of LPS-induced reduction in the number of TH-IR neurons: 30 min pretreatment

With Oc1ccc2c(c1)[C@@]13CCCC[C@H]1[C@@H](C2)NCC3 [3-HM, 3-hydroxymorphinan] the “LPS-induced decrease in DA uptake” value ([1]; 3-HM 5 μM, LPS 10 ng/ml, 7 days) was “almost back to the vehicle-treated control values”, the “increase of DA uptake capacity vs vehicle-treated control” value ([2]; 3-HM 1-5 μM alone, 7 days) was 20-60% and the “neurotrophic effect of compound alone in neuron-glia cultures” value [2] was “significant neurotrophic effect”. For the same molecule, the “DA uptake with 3-HM-treated astroglia conditioned media” value ([3]; 3-HM 1 μM, 10 days) was 151.3%, the “DA uptake with 3-HM-treated astroglia conditioned media” value ([3]; 3-HM 2.5 μM, 10 days) was 160.9% and the “DA uptake with 3-HM-treated astroglia conditioned media” value ([3]; 3-HM 5 μM, 10 days) was 197.8%. For the same molecule, the “DA uptake capacity in neuron-enriched cultures” value ([3]; 3-HM 0.1-5 μM, 10 days) was “failed to show a significant increase in the DA uptake capacity”, the “DA uptake, neuron-enriched cultures + microglia” value ([3]; 10% or 20% of microglia added back, 3-HM-treated, 10 days) was “failed to increase DA uptake” and the “capacity of DA uptake, neuron-enriched cultures + astroglia” value ([3]; 40% of astroglia added back, 3-HM-treated, 10 days) was 135.8%. For the same molecule, the “capacity of DA uptake, neuron-enriched cultures + astroglia” value ([3]; 50% of astroglia added back, 3-HM-treated, 10 days) was 158.3%, the “number of dopaminergic neurons” value ([4]; 3-HM 5 μM pretreatment, LPS 10 ng/ml, LPS alone reduced by 51%) was 97 % of the vehicle-treated control cultures and the “average length of dopaminergic neuronal neurites” value ([4]; 3-HM pretreatment, LPS 10 ng/ml, LPS alone 43%) was 110 % of the vehicle-treated control cultures.
In the case of COc1ccc2c(c1)[C@@]13CCCC[C@H]1[C@@H](C2)N(C)CC3 [DM, d-3-methoxy-N-methylmorphinan], the “LPS-induced decrease in [3H]-dopamine uptake” value ([1]; DM 10^−13 and 10^−14 M, 30 min pretreatment, LPS 10 ng/ml, 7 days) is reported as “equipotent neuroprotective effect”, the “DA uptake, post-treatment with DM” value ([1]; DM 10^−5 and 10^−14 M post-treatment) is reported as “showed a protective effect” and the “DA uptake, post-treatment with DM” value ([1]; DM 10^−10 M post-treatment) is reported as “but not at 10^−10 M”. For the same molecule, the “neurotrophic effect of compound alone in neuron-glia cultures” value [2] was “not observed”, the “neurotrophic effect of DM-treated astroglia conditioned media” value ([3]; DM 5 μM, vs vehicle-treated conditioned cultures) was “failed to exhibit any neurotrophic effect” and the “dendrite network (immunocytochemical analysis)” value ([4]; DM 10^−5 M and 10^−14 M) was “more elaborate dendrite network”. The “attenuation of LPS-induced reduction in the number of TH-IR neurons” value ([4]; DM 10^−5 M, LPS 10 ng/ml) was 37%, the “dendrite network (immunocytochemical analysis)” value ([4]; DM 10^−10 M) was “failed to show improvement” and the “dopaminergic neuron degeneration (TH-IR neuron number)” value ([4]; DM 10^−10 M, LPS 10 ng/ml) was “no protective effects”. For the same molecule, the “attenuation of LPS-induced reduction in the number of TH-IR neurons” value ([4]; DM 10^−14 M, LPS 10 ng/ml) was 28%.
For CCCC(CCC)C(=O)O [VPA, Valproic acid], the “DA uptake levels, VPA alone” value ([1]; VPA 0.6 mM alone, no LPS) was “did not affect DA uptake levels”, the “neuroprotection against LPS neurotoxicity (DA uptake)” value (from here on “neuroprotection”) ([1]; VPA 0.6 mM, 6 hours pretreatment, LPS 10 ng/ml) was “failed to induce a significant effect” and the “neuroprotection” value ([1]; VPA 0.6 mM, 12 hours pretreatment, LPS 10 ng/ml) was “complete neuroprotection”. For the same molecule, the “neuroprotection” value ([1]; VPA 0.6 mM, 48 hours pretreatment, LPS 10 ng/ml) was “further increase in DA uptake levels”, the “LPS-induced decrease in DA uptake” value ([1]; VPA 0.6 mM, 48 h pretreatment, LPS 20 ng/ml) was “completely restored” and the “DA uptake levels vs untreated control” value ([1]; VPA 0.6 mM, alone or with LPS 10 ng/ml) was “significantly higher than those in the untreated control”. For the same molecule, the “LPS-induced reduction of DA uptake” value ([1]; VPA 0.05-0.6 mM, 48 h pretreatment, LPS 20 ng/ml 3 days) was “concentration-dependently prevented”, the “LPS-induced loss of DA uptake capacity” value ([1]; VPA various doses, 48 hours pretreatment, LPS 10 ng/ml 5 days) was “robustly blocked” and the “capacity of [3H]DA uptake vs vehicle-treated control” value ([2]; VPA 0.6 mM for 7 days) was “marked increase”. The “number of TH-IR neurons vs vehicle-treated control” value ([2]; VPA 0.6 mM for 7 days) was “marked increase”, the “spontaneous DA neuronal death (DA uptake)” value ([2]; VPA 0.6 mM, 7 days) was “significantly protected DA neurons from spontaneous neuronal death” and the “increase in DA uptake” value ([3]; neuron-enriched cultures, 7 days, drug 0.6 mM or conditioned medium) was “less than 2 fold”. The “DA neuron morphology (anti-TH), VPA alone” value ([4]; VPA 0.6 mM alone) was “promoted neurite formation and inter-neuronal networks”, the “TH immunostaining in cell bodies and neuronal processes” value ([4]; VPA 0.6 mM, alone or with LPS, vs vehicle control) was “enhanced the TH immunostaining” and the “LPS-induced decrease of TH-ir neurons and loss of neuronal process (morphology)” value ([4]; VPA 0.2-0.6 mM pretreatment, LPS 20 ng/ml) was “reversed by VPA pretreatment in a dose-dependent manner”. For the same molecule, the “LPS-induced morphological changes of DA neurons” value ([4]; VPA 0.2 to 0.6 mM, 48 hours pretreatment, LPS 10 ng/ml, 7 days) was “prevented by VPA pretreatment” and the “LPS-induced loss of TH-ir neurons” value ([4]; VPA pretreatment 48 h, significant effect at 0.2, 0.4 and 0.6 mM, LPS 20 ng/ml 72 h) was “prevented by VPA pretreatment in a concentration-dependent manner”.
